Laboratory results taken from PubChem BioAssay AID1845194 (Molecular Pharmacology Branch, DTP, NCI, 2023).

Test system: 287954-098-R-J1 tumor spheroid viability
Assay: Anticancer human tumor 287954-098-R-J1 patient-derived Ewing sarcoma cell line growth inhibition
Details: spheroids with HUVEC and MSC; for IC50: curve of first compound; for viability, T/C: stronger effect = lower value
Summary of the method: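 Complex spheroids of malignant cells with endothelial cells and mesenchymal stem cells; agents alone or combined, from near clinical Cmax (or 10 microM if unknown) down in half-log steps, 0.25% DMSO final.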
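Further: spheroids exposed to compound for 7 days before viability readout.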
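Wherever viability, T/C is given: luminescent signal taken as surrogate of viable cell content; 100% = DMSO vehicle control viability and lower means growth inhibition.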

**Q.** Which results are given for `COc1ccc([C@@H](O)c2cc(-c3ncnc4cc(N5CCOCC5)ccc34)c(F)cc2Cl)nn1` + Cn1nnc2c(C(N)=O)ncn2c1=O?
**A.** IC50 (second compound 1 µM): > 10 µM; IC50 (second compound 3.16 µM): > 10 µM; IC50 (second compound 10 µM): > 10 µM; IC50 (second compound 31.6 µM): > 10 µM; IC50 (second compound 100 µM): > 10 µM; viability, T/C (second compound 1 µM, first compound 0.0316 µM): 107%; viability, T/C (second compound 1 µM, first compound 0.1 µM): 109%; viability, T/C (second compound 1 µM, first compound 0.316 µM): 109%; viability, T/C (second compound 1 µM, first compound 1 µM): 112%; viability, T/C (second compound 1 µM, first compound 3.16 µM): 101%; viability, T/C (second compound 1 µM, first compound 10 µM): 92.8%; viability, T/C (second compound 3.16 µM, first compound 0.0316 µM): 105%; viability, T/C (second compound 3.16 µM, first compound 0.1 µM): 105%; viability, T/C (second compound 3.16 µM, first compound 0.316 µM): 104%; viability, T/C (second compound 3.16 µM, first compound 1 µM): 107%; viability, T/C (second compound 3.16 µM, first compound 3.16 µM): 101%; viability, T/C (second compound 3.16 µM, first compound 10 µM): 94.5%; viability, T/C (second compound 10 µM, first compound 0.0316 µM): 107%; viability, T/C (second compound 10 µM, first compound 0.1 µM): 106%; viability, T/C (second compound 10 µM, first compound 0.316 µM): 101%; viability, T/C (second compound 10 µM, first compound 1 µM): 105%; viability, T/C (second compound 10 µM, first compound 3.16 µM): 105%; viability, T/C (second compound 10 µM, first compound 10 µM): 101%; viability, T/C (second compound 31.6 µM, first compound 0.0316 µM): 103%; viability, T/C (second compound 31.6 µM, first compound 0.1 µM): 111%; viability, T/C (second compound 31.6 µM, first compound 0.316 µM): 105%; viability, T/C (second compound 31.6 µM, first compound 1 µM): 112%; viability, T/C (second compound 31.6 µM, first compound 3.16 µM): 110%; viability, T/C (second compound 31.6 µM, first compound 10 µM): 97%; viability, T/C (second compound 100 µM, first compound 0.0316 µM): 102%; viability, T/C (second compound 100 µM, first compound 0.1 µM): 110%; viability, T/C (second compound 100 µM, first compound 0.316 µM): 104%; viability, T/C (second compound 100 µM, first compound 1 µM): 109%; viability, T/C (second compound 100 µM, first compound 3.16 µM): 96.9%; viability, T/C (second compound 100 µM, first compound 10 µM): 84%

**Q.** For `Cc1cc(C)c(CNC(=O)c2cc(-c3ccc(CN4CCOCC4)cc3)cc3c2cnn3C2CCCC2)c(=O)[nH]1` + CC[C@@]1(O)C(=O)OCc2c1cc1n(c2=O)Cc2cc3c(CN(C)C)c(O)ccc3nc2-1, which IC50 (second compound 0.003 µM) is on record?
**A.** Its IC50 is greater than 10 µM.

**Q.** What about the IC50 (second compound 0.00949 µM) of the same compound?
**A.** Its IC50 is greater than 10 µM.

**Q.** And the IC50 (second compound 0.03 µM)?
**A.** Its IC50 is less than 0.0316 µM.

**Q.** What about the IC50 (second compound 0.0949 µM) of the same compound?
**A.** The IC50 was less than 0.0316 µM.

**Q.** And the IC50 (second compound 0.3 µM)?
**A.** Its IC50 is less than 0.0316 µM.

**Q.** What about the viability, T/C (second compound 0.003 µM, first compound 0.0316 µM) of the same compound?
**A.** Its viability, T/C is 104%.

**Q.** And the viability, T/C (second compound 0.003 µM, first compound 0.1 µM)?
**A.** The viability, T/C was 106%.

**Q.** And the viability, T/C (second compound 0.003 µM, first compound 0.316 µM)?
**A.** Its viability, T/C is 98.6%.

**Q.** What about the viability, T/C (second compound 0.003 µM, first compound 1 µM) of the same compound?
**A.** The viability, T/C was 96.5%.

**Q.** What about the viability, T/C (second compound 0.003 µM, first compound 3.16 µM) of the same compound?
**A.** The viability, T/C was 102%.

**Q.** And the viability, T/C (second compound 0.003 µM, first compound 10 µM)?
**A.** Its viability, T/C is 119%.

**Q.** And the viability, T/C (second compound 0.00949 µM, first compound 0.0316 µM)?
**A.** The viability, T/C was 100%.

**Q.** What about the viability, T/C (second compound 0.00949 µM, first compound 0.1 µM) of the same compound?
**A.** The viability, T/C was 114%.

**Q.** And the viability, T/C (second compound 0.00949 µM, first compound 0.316 µM)?
**A.** The viability, T/C was 102%.

**Q.** What about the viability, T/C (second compound 0.00949 µM, first compound 1 µM) of the same compound?
**A.** The viability, T/C was 108%.

**Q.** What about the viability, T/C (second compound 0.00949 µM, first compound 3.16 µM) of the same compound?
**A.** The viability, T/C was 104%.

**Q.** What about the viability, T/C (second compound 0.00949 µM, first compound 10 µM) of the same compound?
**A.** The viability, T/C was 104%.

**Q.** What about the viability, T/C (second compound 0.03 µM, first compound 0.0316 µM) of the same compound?
**A.** Its viability, T/C is 12.5%.

**Q.** What about the viability, T/C (second compound 0.03 µM, first compound 0.1 µM) of the same compound?
**A.** The viability, T/C was 42.9%.

**Q.** What about the viability, T/C (second compound 0.03 µM, first compound 0.316 µM) of the same compound?
**A.** Its viability, T/C is 21.1%.

**Q.** What about the viability, T/C (second compound 0.03 µM, first compound 1 µM) of the same compound?
**A.** The viability, T/C was 36.1%.

**Q.** And the viability, T/C (second compound 0.03 µM, first compound 3.16 µM)?
**A.** Its viability, T/C is 28.2%.

**Q.** And the viability, T/C (second compound 0.03 µM, first compound 10 µM)?
**A.** The viability, T/C was 18.9%.

**Q.** And the viability, T/C (second compound 0.0949 µM, first compound 0.0316 µM)?
**A.** Its viability, T/C is 2.57%.

**Q.** What about the viability, T/C (second compound 0.0949 µM, first compound 0.1 µM) of the same compound?
**A.** The viability, T/C was 2.37%.

**Q.** What about the viability, T/C (second compound 0.0949 µM, first compound 0.316 µM) of the same compound?
**A.** The viability, T/C was 2.24%.

**Q.** What about the viability, T/C (second compound 0.0949 µM, first compound 1 µM) of the same compound?
**A.** Its viability, T/C is 2.24%.

**Q.** What about the viability, T/C (second compound 0.0949 µM, first compound 3.16 µM) of the same compound?
**A.** The viability, T/C was 2.58%.

**Q.** What about the viability, T/C (second compound 0.0949 µM, first compound 10 µM) of the same compound?
**A.** The viability, T/C was 2.04%.

**Q.** And the viability, T/C (second compound 0.3 µM, first compound 0.0316 µM)?
**A.** The viability, T/C was 2.22%.

**Q.** And the viability, T/C (second compound 0.3 µM, first compound 0.1 µM)?
**A.** Its viability, T/C is 2.08%.

**Q.** What about the viability, T/C (second compound 0.3 µM, first compound 0.316 µM) of the same compound?
**A.** Its viability, T/C is 2.15%.

**Q.** What about the viability, T/C (second compound 0.3 µM, first compound 1 µM) of the same compound?
**A.** The viability, T/C was 2.38%.

**Q.** And the viability, T/C (second compound 0.3 µM, first compound 3.16 µM)?
**A.** Its viability, T/C is 2.39%.

**Q.** And the viability, T/C (second compound 0.3 µM, first compound 10 µM)?
**A.** The viability, T/C was 1.61%.
